Nine molecules from patent US10231954B2, “Neurodegenerative therapies” (LYTIX BIOPHARMA AS, priority 2014, dated 2019) can be followed below.

Assay type in all cases: biochemical
In one assay the target is MPSK1 (Homo sapiens, UniProt O75716). Briefly: Kinase profiling MPSK1. The conditions noted are these: 100 micromolar inhibitor concentration, 100 is no change; for remaining activity at 100 µM: read-out: residual kinase activity, MPSK1. From the text: (§1) Any value less that 25 is considered to be highly significant inhibition.
MPSK1, sequence (O75716 whole entry, species assumed): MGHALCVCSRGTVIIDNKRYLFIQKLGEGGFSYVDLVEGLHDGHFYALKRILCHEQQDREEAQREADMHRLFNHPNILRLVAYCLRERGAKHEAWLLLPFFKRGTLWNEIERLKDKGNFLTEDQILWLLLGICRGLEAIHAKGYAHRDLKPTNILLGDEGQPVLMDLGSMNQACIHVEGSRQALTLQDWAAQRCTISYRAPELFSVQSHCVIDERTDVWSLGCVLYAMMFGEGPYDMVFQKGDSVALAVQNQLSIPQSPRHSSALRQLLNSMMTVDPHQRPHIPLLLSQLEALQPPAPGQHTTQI
In the next assay the target is MEKK1 (Homo sapiens, UniProt Q13233). Put plainly: Kinase profiling MEKK1. Conditions: 100 micromolar inhibitor concentration, 100 is no change; for remaining activity at 100 µM: read-out: residual kinase activity, MEKK1.
From the text: as §1

Another assay concerns the target T1, MARK4 (Homo sapiens, UniProt Q96L34).
T1 sequence (Q96L34 1-752): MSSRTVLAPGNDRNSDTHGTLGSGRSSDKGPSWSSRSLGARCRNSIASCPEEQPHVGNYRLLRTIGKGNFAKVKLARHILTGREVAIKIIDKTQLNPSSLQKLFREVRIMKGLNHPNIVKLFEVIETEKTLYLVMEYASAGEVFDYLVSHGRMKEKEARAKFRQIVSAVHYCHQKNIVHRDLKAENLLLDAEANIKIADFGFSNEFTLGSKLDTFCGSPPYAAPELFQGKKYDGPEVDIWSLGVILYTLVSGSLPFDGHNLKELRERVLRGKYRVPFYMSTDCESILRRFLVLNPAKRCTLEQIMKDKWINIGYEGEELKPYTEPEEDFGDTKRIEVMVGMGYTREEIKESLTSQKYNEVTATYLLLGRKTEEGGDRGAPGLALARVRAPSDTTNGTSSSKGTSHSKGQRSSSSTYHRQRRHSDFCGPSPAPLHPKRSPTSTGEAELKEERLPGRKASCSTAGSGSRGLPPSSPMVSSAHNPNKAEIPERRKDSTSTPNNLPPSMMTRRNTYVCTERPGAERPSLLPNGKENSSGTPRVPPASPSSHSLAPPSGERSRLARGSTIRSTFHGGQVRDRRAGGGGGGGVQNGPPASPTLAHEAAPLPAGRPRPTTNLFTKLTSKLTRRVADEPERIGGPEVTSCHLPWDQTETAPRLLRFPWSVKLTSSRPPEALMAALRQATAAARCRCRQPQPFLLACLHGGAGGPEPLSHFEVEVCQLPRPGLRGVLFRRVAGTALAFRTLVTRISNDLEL
Briefly: Kinase profiling MARK4. The conditions noted are these: 100 micromolar inhibitor concentration, 100 is no change; for remaining activity at 100 µM: read-out: residual kinase activity, MARK4.
From the text: as §1

The next assay has as its target MNK1 (Homo sapiens, UniProt Q9BUB5). Briefly: Kinase profiling MNK1. The conditions noted are these: 100 micromolar inhibitor concentration, 100 is no change; for remaining activity at 100 µM: read-out: residual kinase activity, MNK1.
From the text: as §1

The target of a further assay is T2, BRSK1 (Homo sapiens, UniProt Q8TDC3).
T2 sequence (Q8TDC3 1-778): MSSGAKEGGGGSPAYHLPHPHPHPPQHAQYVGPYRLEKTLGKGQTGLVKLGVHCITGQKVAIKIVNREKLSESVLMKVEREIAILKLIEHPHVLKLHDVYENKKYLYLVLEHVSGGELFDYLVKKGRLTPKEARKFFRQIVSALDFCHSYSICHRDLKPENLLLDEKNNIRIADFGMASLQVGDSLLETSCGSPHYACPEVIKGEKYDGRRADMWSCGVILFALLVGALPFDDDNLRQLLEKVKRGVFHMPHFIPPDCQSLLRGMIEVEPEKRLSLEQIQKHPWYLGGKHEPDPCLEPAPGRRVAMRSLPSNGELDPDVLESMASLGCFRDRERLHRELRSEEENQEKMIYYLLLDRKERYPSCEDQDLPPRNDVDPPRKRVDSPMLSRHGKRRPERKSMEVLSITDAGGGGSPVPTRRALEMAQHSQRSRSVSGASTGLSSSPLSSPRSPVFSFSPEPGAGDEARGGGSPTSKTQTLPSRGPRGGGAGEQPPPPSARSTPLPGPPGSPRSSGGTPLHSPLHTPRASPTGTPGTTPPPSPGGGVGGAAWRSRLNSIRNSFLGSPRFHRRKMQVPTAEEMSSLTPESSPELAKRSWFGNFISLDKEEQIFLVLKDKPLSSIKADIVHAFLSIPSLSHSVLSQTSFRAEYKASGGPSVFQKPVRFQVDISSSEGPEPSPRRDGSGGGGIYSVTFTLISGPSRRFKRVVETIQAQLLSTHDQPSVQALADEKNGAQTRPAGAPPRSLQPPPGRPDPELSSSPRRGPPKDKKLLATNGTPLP
Put plainly: Kinase profiling BRSK1. Conditions: 100 micromolar inhibitor concentration, 100 is no change; for remaining activity at 100 µM: read-out: residual kinase activity, BRSK1.
From the text: as §1

In the next assay the target is IR (Homo sapiens, UniProt P06213). Briefly: Kinase profiling IR. Conditions: 100 micromolar inhibitor concentration, 100 is no change; for remaining activity at 100 µM: read-out: residual kinase activity, IR.
IR, sequence (P06213 28-1382): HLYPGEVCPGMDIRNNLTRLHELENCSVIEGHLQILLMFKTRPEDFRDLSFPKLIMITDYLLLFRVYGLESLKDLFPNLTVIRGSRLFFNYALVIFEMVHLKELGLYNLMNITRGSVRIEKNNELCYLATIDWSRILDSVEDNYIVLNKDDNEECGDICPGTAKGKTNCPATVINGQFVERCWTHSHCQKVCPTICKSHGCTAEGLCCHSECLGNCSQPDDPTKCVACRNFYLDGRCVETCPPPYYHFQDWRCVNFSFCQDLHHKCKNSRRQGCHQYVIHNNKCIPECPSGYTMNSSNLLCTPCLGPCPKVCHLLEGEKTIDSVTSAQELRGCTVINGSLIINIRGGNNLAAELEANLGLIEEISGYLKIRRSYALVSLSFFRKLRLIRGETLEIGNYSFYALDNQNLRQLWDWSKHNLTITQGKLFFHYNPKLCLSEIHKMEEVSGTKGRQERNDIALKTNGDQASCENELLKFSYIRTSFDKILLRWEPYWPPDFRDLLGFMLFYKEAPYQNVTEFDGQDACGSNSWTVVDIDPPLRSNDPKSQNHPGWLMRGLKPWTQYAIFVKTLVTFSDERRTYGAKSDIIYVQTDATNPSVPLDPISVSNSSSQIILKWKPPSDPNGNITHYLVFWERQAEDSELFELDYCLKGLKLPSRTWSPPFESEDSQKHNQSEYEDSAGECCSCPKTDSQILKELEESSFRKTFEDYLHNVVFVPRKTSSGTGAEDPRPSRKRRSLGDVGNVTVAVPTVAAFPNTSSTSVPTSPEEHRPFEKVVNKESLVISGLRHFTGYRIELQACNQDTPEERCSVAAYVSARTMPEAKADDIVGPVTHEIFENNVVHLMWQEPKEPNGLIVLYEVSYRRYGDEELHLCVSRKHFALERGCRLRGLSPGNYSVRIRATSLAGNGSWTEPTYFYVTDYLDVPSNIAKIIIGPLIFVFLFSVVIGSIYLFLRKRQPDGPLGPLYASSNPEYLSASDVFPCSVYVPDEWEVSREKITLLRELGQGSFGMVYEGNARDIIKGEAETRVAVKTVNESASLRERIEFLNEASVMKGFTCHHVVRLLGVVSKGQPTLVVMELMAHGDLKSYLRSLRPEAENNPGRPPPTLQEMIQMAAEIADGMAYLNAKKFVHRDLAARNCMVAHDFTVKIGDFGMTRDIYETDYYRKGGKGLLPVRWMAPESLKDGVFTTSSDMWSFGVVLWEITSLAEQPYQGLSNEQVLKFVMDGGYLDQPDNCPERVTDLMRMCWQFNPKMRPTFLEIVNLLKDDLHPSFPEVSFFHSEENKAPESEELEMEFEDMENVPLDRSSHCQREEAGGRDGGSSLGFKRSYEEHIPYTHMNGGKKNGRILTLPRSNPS
From the text: as §1

The target of a further assay is ABL (Homo sapiens, UniProt P00519). Put plainly: Kinase profiling ABL. Conditions: 100 micromolar inhibitor concentration, 100 is no change; for remaining activity at 100 µM: read-out: residual kinase activity, ABL.
ABL, sequence (P00519 whole entry, species assumed): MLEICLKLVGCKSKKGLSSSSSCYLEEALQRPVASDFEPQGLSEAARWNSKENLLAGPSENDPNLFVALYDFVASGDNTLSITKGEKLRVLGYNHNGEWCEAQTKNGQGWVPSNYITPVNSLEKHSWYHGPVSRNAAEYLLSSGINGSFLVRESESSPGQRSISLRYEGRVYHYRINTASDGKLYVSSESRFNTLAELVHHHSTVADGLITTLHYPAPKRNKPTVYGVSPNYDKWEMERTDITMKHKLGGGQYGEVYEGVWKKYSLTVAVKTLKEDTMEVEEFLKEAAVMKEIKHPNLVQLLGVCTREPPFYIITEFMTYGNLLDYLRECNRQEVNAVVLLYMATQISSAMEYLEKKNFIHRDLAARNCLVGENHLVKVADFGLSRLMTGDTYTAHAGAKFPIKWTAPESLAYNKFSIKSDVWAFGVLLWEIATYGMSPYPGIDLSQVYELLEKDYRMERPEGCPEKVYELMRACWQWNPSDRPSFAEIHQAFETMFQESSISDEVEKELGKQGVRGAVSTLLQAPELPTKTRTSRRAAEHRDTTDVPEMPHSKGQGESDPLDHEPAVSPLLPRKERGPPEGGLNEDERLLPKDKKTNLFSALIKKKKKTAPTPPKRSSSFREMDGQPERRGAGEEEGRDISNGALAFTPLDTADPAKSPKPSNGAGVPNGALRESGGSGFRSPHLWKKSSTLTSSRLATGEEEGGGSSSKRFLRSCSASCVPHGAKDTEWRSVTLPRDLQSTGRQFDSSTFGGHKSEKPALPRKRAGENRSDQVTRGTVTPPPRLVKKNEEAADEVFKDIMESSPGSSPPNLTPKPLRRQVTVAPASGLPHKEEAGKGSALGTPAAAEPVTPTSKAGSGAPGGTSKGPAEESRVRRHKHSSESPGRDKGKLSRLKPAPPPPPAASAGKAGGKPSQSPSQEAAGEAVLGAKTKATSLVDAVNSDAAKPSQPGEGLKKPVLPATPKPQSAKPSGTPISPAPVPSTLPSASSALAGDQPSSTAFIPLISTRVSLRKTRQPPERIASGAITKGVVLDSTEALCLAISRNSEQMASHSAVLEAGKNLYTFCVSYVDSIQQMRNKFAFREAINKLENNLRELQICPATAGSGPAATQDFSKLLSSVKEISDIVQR
From the text: as §1

The target in a further assay is T3, TGFBR1 (Homo sapiens, UniProt P36897).
T3 sequence (P36897 34-503): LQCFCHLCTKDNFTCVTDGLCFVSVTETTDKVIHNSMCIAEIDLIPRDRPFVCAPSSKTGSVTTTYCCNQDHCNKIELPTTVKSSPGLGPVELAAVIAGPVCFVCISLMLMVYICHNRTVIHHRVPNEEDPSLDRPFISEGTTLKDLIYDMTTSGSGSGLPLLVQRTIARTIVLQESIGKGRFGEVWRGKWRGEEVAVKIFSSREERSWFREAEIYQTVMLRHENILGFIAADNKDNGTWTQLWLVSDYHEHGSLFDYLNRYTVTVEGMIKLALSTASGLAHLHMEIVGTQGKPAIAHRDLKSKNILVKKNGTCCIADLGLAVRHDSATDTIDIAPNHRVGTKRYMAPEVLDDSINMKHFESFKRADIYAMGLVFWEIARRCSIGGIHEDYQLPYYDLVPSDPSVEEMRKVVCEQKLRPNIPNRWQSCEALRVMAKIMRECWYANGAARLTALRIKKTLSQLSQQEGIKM
Put plainly: Kinase profiling TGFBR1. Conditions: 100 micromolar inhibitor concentration, 100 is no change; for remaining activity at 100 µM: read-out: residual kinase activity, TGFBR1.
From the text: as §1

The target in a further assay is IRR (Homo sapiens, UniProt P14616). Briefly: Kinase profiling IRR. The conditions noted are these: 100 micromolar inhibitor concentration, 100 is no change; for remaining activity at 100 µM: read-out: residual kinase activity, IRR.
IRR, sequence (P14616 27-1297, species assumed): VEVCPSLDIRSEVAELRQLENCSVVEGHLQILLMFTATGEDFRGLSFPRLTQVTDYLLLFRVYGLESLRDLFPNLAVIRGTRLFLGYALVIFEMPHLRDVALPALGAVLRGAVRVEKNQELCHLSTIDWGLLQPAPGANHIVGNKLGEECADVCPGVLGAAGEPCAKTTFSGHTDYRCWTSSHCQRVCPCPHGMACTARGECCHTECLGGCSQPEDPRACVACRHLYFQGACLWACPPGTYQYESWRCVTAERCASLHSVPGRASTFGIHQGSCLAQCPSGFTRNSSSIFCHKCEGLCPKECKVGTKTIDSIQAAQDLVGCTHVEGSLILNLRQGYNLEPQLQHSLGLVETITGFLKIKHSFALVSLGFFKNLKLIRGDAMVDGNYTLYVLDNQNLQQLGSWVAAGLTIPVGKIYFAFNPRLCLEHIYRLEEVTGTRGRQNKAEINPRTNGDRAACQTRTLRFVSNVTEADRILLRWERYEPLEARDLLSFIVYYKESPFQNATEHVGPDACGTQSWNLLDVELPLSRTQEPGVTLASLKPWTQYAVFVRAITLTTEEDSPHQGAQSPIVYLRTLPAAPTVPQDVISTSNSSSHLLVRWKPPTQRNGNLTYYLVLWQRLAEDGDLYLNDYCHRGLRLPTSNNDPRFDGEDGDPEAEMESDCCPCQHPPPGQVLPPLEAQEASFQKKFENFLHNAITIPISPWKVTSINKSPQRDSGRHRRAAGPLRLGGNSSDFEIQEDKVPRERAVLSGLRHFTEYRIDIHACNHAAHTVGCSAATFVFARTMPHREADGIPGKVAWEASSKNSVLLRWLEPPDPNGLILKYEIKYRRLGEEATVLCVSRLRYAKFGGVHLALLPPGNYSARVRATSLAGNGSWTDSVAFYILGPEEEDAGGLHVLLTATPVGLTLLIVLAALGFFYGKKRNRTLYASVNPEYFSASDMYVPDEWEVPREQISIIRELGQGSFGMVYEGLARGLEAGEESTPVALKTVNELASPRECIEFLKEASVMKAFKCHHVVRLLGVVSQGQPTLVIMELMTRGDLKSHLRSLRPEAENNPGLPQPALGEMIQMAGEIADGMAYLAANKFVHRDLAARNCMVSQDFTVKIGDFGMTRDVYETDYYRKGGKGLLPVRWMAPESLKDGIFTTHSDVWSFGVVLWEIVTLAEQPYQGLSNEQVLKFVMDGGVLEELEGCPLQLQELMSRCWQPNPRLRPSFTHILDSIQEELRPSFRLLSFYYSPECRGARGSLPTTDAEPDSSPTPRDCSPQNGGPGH
From the text: as §1

The target of the next assay is EPH-A4 (Homo sapiens, UniProt P54764). Briefly: Kinase profiling EPH-A4. The conditions noted are these: 100 micromolar inhibitor concentration, 100 is no change; for remaining activity at 100 µM: read-out: residual kinase activity, EPH-A4.
EPH-A4, sequence (P54764 20-986, species assumed): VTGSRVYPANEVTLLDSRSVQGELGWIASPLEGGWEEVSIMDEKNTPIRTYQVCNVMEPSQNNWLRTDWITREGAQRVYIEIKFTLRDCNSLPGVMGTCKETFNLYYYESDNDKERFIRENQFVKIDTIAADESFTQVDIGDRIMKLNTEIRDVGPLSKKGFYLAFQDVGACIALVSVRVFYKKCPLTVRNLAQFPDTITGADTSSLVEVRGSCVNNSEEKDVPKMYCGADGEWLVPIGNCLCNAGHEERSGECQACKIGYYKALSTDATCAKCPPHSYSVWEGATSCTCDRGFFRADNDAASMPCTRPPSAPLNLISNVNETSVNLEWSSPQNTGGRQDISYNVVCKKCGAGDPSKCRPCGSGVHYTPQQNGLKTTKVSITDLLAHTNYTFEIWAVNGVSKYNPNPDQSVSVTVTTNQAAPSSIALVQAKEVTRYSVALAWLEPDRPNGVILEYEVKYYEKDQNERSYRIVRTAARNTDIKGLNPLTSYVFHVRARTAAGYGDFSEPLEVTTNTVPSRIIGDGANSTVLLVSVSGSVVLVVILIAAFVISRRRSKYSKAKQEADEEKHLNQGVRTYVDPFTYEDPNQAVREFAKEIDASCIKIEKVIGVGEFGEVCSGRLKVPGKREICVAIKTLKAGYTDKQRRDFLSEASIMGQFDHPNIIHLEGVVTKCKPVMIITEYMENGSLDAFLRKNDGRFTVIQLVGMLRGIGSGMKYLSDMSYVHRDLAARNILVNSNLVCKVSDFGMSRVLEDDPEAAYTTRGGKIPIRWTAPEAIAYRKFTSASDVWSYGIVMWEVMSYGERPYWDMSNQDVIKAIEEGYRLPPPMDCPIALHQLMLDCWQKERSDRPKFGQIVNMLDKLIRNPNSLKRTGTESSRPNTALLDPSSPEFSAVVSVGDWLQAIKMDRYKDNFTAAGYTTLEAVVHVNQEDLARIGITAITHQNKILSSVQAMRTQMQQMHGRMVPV
From the text: as §1

Turning to `COc1ccc2sc(NC(C)=O)nc2c1` [Compound 03-21], the remaining activity at 100 µM worked out at 97% on MPSK1; 113% at MEKK1; 100% at MARK4; 77% on MNK1; 85% on BRSK1; 109% on IR. Also, the remaining activity at 100 µM amounted to 111% on ABL, 124% at TGFBR1, 47% on IRR and 98% on EPH-A4.

Consider `CC(=O)Nc1nc2ccccc2s1` [Compound 03-32], for which, on MPSK1, the “residual kinase activity, MPSK1” value is 86. Moreover, the “residual kinase activity, MEKK1” value at MEKK1 amounted to 93. In addition, the “residual kinase activity, MARK4” value at MARK4 was 91. The “residual kinase activity, MNK1” value at MNK1 turned out to be 89. Also, the “residual kinase activity, BRSK1” value at BRSK1 was determined as 95. At IR, the “residual kinase activity, IR” value is on record as 87. Besides, the “residual kinase activity, ABL” value at ABL stood at 86. Also, on TGFBR1, the “residual kinase activity, TGFBR1” value is 92. Moreover, the “residual kinase activity, IRR” value at IRR is recorded as 63. Further, the “residual kinase activity, EPH-A4” value on EPH-A4 came out at 111.

On to `O=C(Nc1nc2cc(O)ccc2s1)c1cccnc1` [Compound 03-33], for which, at MPSK1, the “residual kinase activity, MPSK1” value worked out at 101. On MEKK1, the “residual kinase activity, MEKK1” value is on record as 107. Further, on MARK4, the “residual kinase activity, MARK4” value stood at 95. The “residual kinase activity, MNK1” value on MNK1 worked out at 21. The “residual kinase activity, BRSK1” value at BRSK1 was 83. Also, on IR, the “residual kinase activity, IR” value was 105. Further, the “residual kinase activity, ABL” value on ABL was 105. For the same molecule, the “residual kinase activity, TGFBR1” value at TGFBR1 was determined as 88. Besides, the “residual kinase activity, IRR” value on IRR stood at 51. Further, the “residual kinase activity, EPH-A4” value at EPH-A4 is recorded as 92.

Regarding `O=C(Nc1nc2ccc(O)cc2s1)c1ccccc1` [Compound 03-60], on MPSK1, the “residual kinase activity, MPSK1” value came to 106. Also, the “residual kinase activity, MEKK1” value at MEKK1 is on record as 105. Further, on MARK4, the “residual kinase activity, MARK4” value stood at 67. Besides, the “residual kinase activity, MNK1” value at MNK1 is listed as 18. The “residual kinase activity, BRSK1” value at BRSK1 is 43. Besides, the “residual kinase activity, IR” value on IR stood at 31. Also, the “residual kinase activity, ABL” value on ABL amounted to 54. In addition, on TGFBR1, the “residual kinase activity, TGFBR1” value is on record as 93. The “residual kinase activity, IRR” value on IRR is listed as 31. Besides, the “residual kinase activity, EPH-A4” value at EPH-A4 is reported as 87.

Turning to `CC(=O)Nc1nc2cc(C(F)(F)F)ccc2s1` [Compound 03-73], the remaining activity at 100 µM on MPSK1 stood at 97%; on MEKK1 it was 111%; on MARK4, 97%; at MNK1 it was 89%; on BRSK1 it was 83%; on IR it was 102%. In addition, the remaining activity at 100 µM on ABL was determined as 109%; on TGFBR1, 118%; at IRR it was 61%; on EPH-A4, 103%.

Consider `CC(=O)Nc1nc2cc(C)ccc2s1` [Compound 03-76], for which the “residual kinase activity, MPSK1” value at MPSK1 is listed as 91. On MEKK1, the “residual kinase activity, MEKK1” value is 107. Also, the “residual kinase activity, MARK4” value at MARK4 was 80. The “residual kinase activity, MNK1” value on MNK1 came out at 81. At BRSK1, the “residual kinase activity, BRSK1” value amounted to 75. In addition, the “residual kinase activity, IR” value at IR turned out to be 97. Moreover, at ABL, the “residual kinase activity, ABL” value was determined as 82. In addition, the “residual kinase activity, TGFBR1” value on TGFBR1 was found to be 98. At IRR, the “residual kinase activity, IRR” value was determined as 66. Further, at EPH-A4, the “residual kinase activity, EPH-A4” value amounted to 91.

Consider `CC(=O)Nc1nc2cc(F)ccc2s1` [Compound 03-77], for which the remaining activity at 100 µM at MPSK1 is 86%; on MEKK1, 102%; at MARK4, 86%; on MNK1 it was 64%; at BRSK1, 78%; at IR, 87%. The remaining activity at 100 µM on ABL stood at 86%; at TGFBR1, 96%; at IRR, 57%; on EPH-A4, 100%.

As to `O=C(Nc1nc2ccc(O)cc2s1)c1ccncc1` [Compound 08-42], at MPSK1, the “residual kinase activity, MPSK1” value is given as 77. Moreover, the “residual kinase activity, MEKK1” value on MEKK1 is given as 76. Further, the “residual kinase activity, MARK4” value at MARK4 turned out to be 82. For the same molecule, at MNK1, the “residual kinase activity, MNK1” value is 53. Further, at BRSK1, the “residual kinase activity, BRSK1” value is recorded as 56. Moreover, at IR, the “residual kinase activity, IR” value worked out at 51. For the same molecule, the “residual kinase activity, ABL” value at ABL is given as 76. Besides, the “residual kinase activity, TGFBR1” value at TGFBR1 is listed as 106. Moreover, at IRR, the “residual kinase activity, IRR” value amounted to 71. Besides, the “residual kinase activity, EPH-A4” value on EPH-A4 was 92.

On to `O=C(Nc1nc2ccc(O)cc2s1)c1cccnc1` [Compound 08-44], for which the “residual kinase activity, MPSK1” value on MPSK1 turned out to be 81. Also, the “residual kinase activity, MEKK1” value on MEKK1 came to 107. In addition, on MARK4, the “residual kinase activity, MARK4” value is 77. The “residual kinase activity, MNK1” value at MNK1 came out at 19. Further, at BRSK1, the “residual kinase activity, BRSK1” value turned out to be 45. In addition, the “residual kinase activity, IR” value at IR stood at 35. On ABL, the “residual kinase activity, ABL” value was 58. For the same molecule, the “residual kinase activity, TGFBR1” value at TGFBR1 came to 103. In addition, at IRR, the “residual kinase activity, IRR” value came to 45. On EPH-A4, the “residual kinase activity, EPH-A4” value was 89.
